Values after ≈ are worked out from the molar mass of the structure shown.
Test: Solubility of the compound in HEPES buffer
Type: physicochemical

Structure (SMILES) | solubility [µM]
CC(=O)c1cnc2c(=O)[nH]c(N)nc2n1 | 500 (≈ 103 µg/mL)
NNC(=O)c1cnc2c(=O)[nH]c(N)nc2n1 | 500 (≈ 111 µg/mL)

From ChEMBL document CHEMBL1821685 (Eur J Med Chem, 2011)
